Reference: ChEMBL document CHEMBL6177940, “Therapeutic upregulation of DNA repair pathways: strategies and small molecule activators” (RSC Med Chem, 2024)

Tests used:
[1] = Activation of Flag/His-tagged human recombinant OGG1 (1 to 345 residues) by fluorescence based analysis
[2] = test system: HCC1806; assay: Antiproliferative activity against human HCC1806 cells assessed as reduction in cell viability incubated for 72 hrs by MTT assay; assay type: functional, cell-based; conditions: HCC1806, 72 h
[3] = Activation of MTH1 (unknown origin); parameters: species or system Homo sapiens
[4] = Upregulation of OGG1 expression in mouse MCT cells assessed as fold increase at 2 mM
[5] = test system: HCC1937; assay: Antitumor activity against human HCC1937 cells harboring BRAC1 mutant xenografted in NOD/SCID mouse assessed as increase in survival rate at 250 mg/kg, ip measured after 60 days relative to control; assay type: functional; conditions: time 60 day
[6] = Induction of DNA repair activity in human SUM149PT cells harboring BRCA1 mutant co-expressing GFP reporter gene at 100 uM relative to control; assay type: functional
[7] = molecular target: T1, NAD-dependent protein deacetylase sirtuin-1 (Homo sapiens) (UniProt Q96EB6); assay: Activation of N-terminal Hex/Histidine-tagged human SIRT1 extracted from Escherichia coli BL21 (DE3) by Fluorescence polarization assay; conditions: filed as activator
T1 sequence (whole entry): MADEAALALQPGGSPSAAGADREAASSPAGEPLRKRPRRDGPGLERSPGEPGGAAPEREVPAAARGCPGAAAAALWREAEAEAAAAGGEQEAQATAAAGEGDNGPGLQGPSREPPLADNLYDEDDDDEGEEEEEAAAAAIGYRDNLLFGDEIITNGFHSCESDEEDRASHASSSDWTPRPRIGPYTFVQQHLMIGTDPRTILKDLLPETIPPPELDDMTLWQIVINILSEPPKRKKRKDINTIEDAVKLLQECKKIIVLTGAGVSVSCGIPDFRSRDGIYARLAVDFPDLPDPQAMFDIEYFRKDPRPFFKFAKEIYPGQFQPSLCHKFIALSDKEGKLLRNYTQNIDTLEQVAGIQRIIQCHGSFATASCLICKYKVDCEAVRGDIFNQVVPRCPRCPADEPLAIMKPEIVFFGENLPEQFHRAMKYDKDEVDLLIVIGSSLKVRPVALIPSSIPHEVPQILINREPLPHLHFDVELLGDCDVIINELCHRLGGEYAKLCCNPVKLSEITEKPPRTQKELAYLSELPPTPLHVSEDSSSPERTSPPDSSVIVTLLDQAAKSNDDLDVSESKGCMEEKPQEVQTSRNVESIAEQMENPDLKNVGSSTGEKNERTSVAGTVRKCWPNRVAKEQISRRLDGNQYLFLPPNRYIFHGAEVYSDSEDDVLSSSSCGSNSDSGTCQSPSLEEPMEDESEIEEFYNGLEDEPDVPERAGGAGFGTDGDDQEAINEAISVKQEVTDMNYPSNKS

[8] = Induction of DNA repair activity in human SUM149PT cells harboring BRCA1 mutant co-expressing GFP reporter gene at 1 uM relative to control; assay type: functional
[9] = Upregulation of OGG1 level in human A549 cells at 30 uM measured for 48 hrs relative to control; assay type: functional
[10] = species on record: Mus musculus; assay: Reversal of oxidative stress-induced DNA damage in mouse model assessed as increase in expression of OGG1 by measuring fold change
[11] = species on record: Mus musculus; assay: Reversal of oxidative stress-induced DNA damage in mouse model assessed as increase in expression of XRCC1 by measuring fold change
[12] = species on record: Mus musculus; assay: Reversal of oxidative stress-induced DNA damage in mouse model assessed as increase in expression of APE1 by measuring fold change
[13] = Upregulation of BRCA2 expression in mouse Bone marrow cells at 5 uM; assay type: functional, Bone marrow cell
[14] = Upregulation of BRCA1 expression in mouse Bone marrow cells at 5 uM; assay type: functional, Bone marrow cell
[15] = Activation of rat liver AMPK

Cc1cc(N[C@@H](C)C(=O)Nc2ccccc2)nc(Nc2ccccc2)n1
EC50 [1]: 4.1 µM

O=C(Nc1ccc(CN2CCOCC2)c(C(F)(F)F)c1)c1ccc(C#Cc2cccc3cnccc23)cn1
IC50 [2]: 10 µM
EC50 [3]: 5.5 µM

NC(=O)c1ncn([C@H]2O[C@@H](COP(=O)(O)O)[C@H](O)[C@@H]2O)c1N
fold change (FC) [4]: 5

NC(CO)C(=O)NNCc1ccc(O)c(O)c1O (stereo not given) [BENSERAZIDE]
Activity [5]: <=70%
Activity [6]: 60%

Cc1nc(-c2cccnc2)sc1C(=O)Nc1ccccc1-c1cn2c(CN3CCOCC3)csc2n1
EC1.5 [7]: 0.43 µM

CC(=O)c1ccc(S(=O)(=O)NC(=O)NC2CCCCC2)cc1 [ACETOHEXAMIDE]
Activity [8]: 90%

CNc1nnc(C)c2c1cc(-c1ccc(F)cc1)n2C
EC50 [1]: 5.1 µM

OC(Cn1ccnc1)(c1ccc(Cl)cc1Cl)C1CCCCC1 (stereo not given)
EC50 [1]: 5 µM
Activity [9]: 142.3%

Cc1cnc(N2CCN3CCCC3C2)nc1Oc1ccc(-n2ccnc2)cc1 (stereo not given)
EC50 [1]: 4.6 µM

O=c1c(O)c(-c2ccc(O)c(O)c2)oc2cc(O)cc(O)c12 [QUERCETIN]
fold change (FC) [10]: 2
fold change (FC) [11]: 2
fold change (FC) [12]: 2

COc1cc(/C=C/C(=O)CC(=O)/C=C/c2ccc(O)c(OC)c2)ccc1O [CURCUMIN]
Activity [13]: 170%
Activity [14]: 170%

N#Cc1c(O)c2c(-c3ccc(-c4ccccc4O)cc3)csc2[nH]c1=O
EC50 [15]: 0.116 µM

COc1cc(C(=O)Nc2ccccc2-c2cn3c(CN4CCNCC4)csc3n2)cc(OC)c1OC
EC1.5 [7]: 2.9 µM

Nc1ncnc2c1ncn2[C@H]1O[C@@H](COP(=O)(O)O)[C@H](O)[C@@H]1O
EC50 [15]: 6 µM
